According to patent US20230346820A1, “METHODS AND COMPOSITIONS FOR THE TREATMENT OF SARS-COV-2” (priority 2020, published 2023):
Like-named read-outs stand apart in the source and are kept apart here. Residues, ends and D or L forms follow the SMILES beside them. *: point of attachment. Cbz = O=C(OCc1ccccc1)*; CHN2 = [N-]=[N+]=C*

Key:
[1] = system: SARS-CoV-2
[2] = in vitro; details: human
[3] = system: SARS-CoV-2; experiment: microbe, parasite or virus in culture
[4] = system: HeLa-ACE2 cells; experiment: cells; type: cell-based, human
[5] = system: SARS-CoV-2; details: read-out: Calu-3 CoV-2 EC50; Table 4; aggregated data, Geomean, n = 3; 48 h
[6] = CC50 [μM] (Geomeans, n ≥ 2 except where indicated: *n = 1)
[7] = Severe acute respiratory syndrome coronavirus 2, HeLa-ACE2, 24 h, read-out: CoV-2 EC50 [μM] (Geomeans, n ≥ 2)
[8] = Homo sapiens, HeLa-ACE2, read-out: HeLa-ACE-2 EC50 [μM] (Geomeans, n ≥ 2)
[9] = Severe acute respiratory syndrome coronavirus 2, HeLa-ACE2, read-out: SARS-CoV-2 EC50

Q: Which “HeLa-ACE2 CC50/CoV-2 EC50” value [1] does the source give for CCCCN1CC[C@H](c2ccc(N(C)C)cc2)[C@@H](COc2ccc(C(F)(F)F)cc2)C1 [NNC 090026] here?
A: >5.59

Q: What about the CC50 [2, 6] of the same compound?
A: > 15.4 µM

Q: And the CC50 ([2]; Uninfected HeLa-ACE2 CC50 (μM))?
A: > 15.4 µM

Q: And the EC50 [3, 7]?
A: 2.75 µM

Q: What about the EC50 ([3]; Severe acute respiratory syndrome coronavirus 2, HeLa-ACE2, read-out: SARS CoV-2 EC50 (μM)) of the same compound?
A: 2.75 µM

Q: For COc1ccc(C[C@H](N)C(=O)N[C@H]2[C@@H](O)[C@H](n3cnc4c(N(C)C)ncnc43)O[C@@H]2CO)cc1 [puromycin], which EC50 ([4]; Homo sapiens, HeLa-ACE2, read-out: EC50 (total cell numbers per well, toxicity in context of infection)) is on record?
A: 0.547 ± 0.027 µM

Q: What about the CC50 ([2]; HeLa-ACE2 CC50) of the same compound?
A: 2.45 ± 0.23 µM

Q: With c1ccc2c(c1)Sc1ccccc1N2CC1CN2CCC1CC2 (centres unmarked) [Mequitazine] as the compound, how does the EC50 [4, 8] read?
A: > 9.59 µM

Q: And the “HeLa-ACE2 CC50/CoV-2 EC50” value [1]?
A: 6.83

Q: What about the CC50 [2, 6] of the same compound?
A: 17.3 µM

Q: And the EC50 [3, 7]?
A: 2.53 µM

Q: With CCCCCCOC(=O)NC(=N)c1ccc(NCc2nc3cc(C(=O)N(CCC(=O)OCC)c4ccccn4)ccc3n2C)cc1 [Dabigatranetexilate mesilate] as the compound, how does the “HeLa-ACE2 CC50/CoV-2 EC50” value [1] read?
A: >6.50

Q: And the CC50 [2, 6]?
A: > 26.5 µM

Q: For Cc1ccc(C(=O)Nc2cccc(C(F)(F)F)c2)cc1NC(=O)c1cccc2c(N)nccc12 [RFM-011-761-3], which EC50 [4, 8] is on record?
A: > 9.06 µM

Q: What about the “HeLa-ACE2 CC50/CoV-2 EC50” value [1] of the same compound?
A: >3.37

Q: And the CC50 [2, 6]?
A: > 21.2 µM

Q: What about the EC50 [3, 7] of the same compound?
A: 6.31 µM

Q: Which “HeLa-ACE2 CC50/CoV-2 EC50” value [1] does the source give for CCN(CC)Cc1cc(Nc2ccnc3cc(Cl)ccc23)ccc1O [Amodioaquine] here?
A: >33.48

Q: What about the CC50 [2, 6] of the same compound?
A: > 39.8 µM

Q: And the EC50 [3, 7]?
A: 1.19 µM

Q: For CC(CN1CCN(c2cccc3c2CCCN3)CC1)NC(=O)c1ccc(F)cc1 (centres unmarked) [SLV-307], which EC50 [4, 8] is on record?
A: > 6.7 µM

Q: And the “HeLa-ACE2 CC50/CoV-2 EC50” value [1]?
A: 4.15

Q: What about the CC50 [2, 6] of the same compound?
A: > 39.8 µM

Q: And the EC50 [3, 7]?
A: > 9.59 µM

Q: Which EC50 [4, 8] does the source give for COc1cc(CC2c3cc(OC)c(OC)cc3CCN2C)c(Oc2cc3c(cc2OC)-c2c(O)c(OC)cc4c2C(C3)N(C)CC4)cc1OC (centres unmarked) [Thalicarpine Analog] here?
A: > 8.78 µM

Q: And the “HeLa-ACE2 CC50/CoV-2 EC50” value [1]?
A: 26.77

Q: What about the CC50 [2, 6] of the same compound?
A: > 21.5 µM

Q: What about the EC50 [3, 7] of the same compound?
A: > 0.8 µM

Q: Which EC50 [4, 8] does the source give for COC(=O)C1=C(C)NC(C)=C(C(=O)OCCCCNC[C@@H](O)COc2ccccc2)C1c1cccc([N+](=O)[O-])c1 (some centres unmarked) [YM 430] here?
A: > 7.8 µM

Q: What about the “HeLa-ACE2 CC50/CoV-2 EC50” value [1] of the same compound?
A: 7.01

Q: And the CC50 [2, 6]?
A: > 20.2 µM

Q: What about the EC50 [3, 7] of the same compound?
A: 2.88 µM

Q: With COc1ccc(C[C@H]2NC[C@H](O)[C@H]2OC(C)=O)cc1 [ANISOMYCIN] as the compound, how does the EC50 ([1]; read-out: HeLa-ACE2 CoV-2 EC50, Table 4, aggregated data, Geomean, n = 3) read?
A: 0.066 µM

Q: And the EC50 [5]?
A: 0.127 µM

Q: With NC1(C(=O)N[C@@H](CCO)c2ccc(Cl)cc2)CCN(c2nc[nH]c3nccc2-3)CC1 [AZD-5363] as the compound, how does the EC50 ([4]; read-out: HeLa-ACE-2 EC50 [μM] (Geomeans, n ≥ 2)) read?
A: > 3.39 µM

Q: What about the EC50 ([1]; read-out: CoV-2 EC50 [μM] (Geomeans, n ≥ 2), Table 1, HeLa-ACE2, 24 h) of the same compound?
A: > 4.63 µM

Q: Which “HeLa-ACE2 CC50/CoV-2 EC50” value [1] does the source give for CN1[C@@H]2CC[C@H]1C[C@@H](N1Cc3ccc4ccccc4c3C1=O)C2 [CR-3124] here?
A: >6.67

Q: And the CC50 [2, 6]?
A: > 39.8 µM

Q: For Cc1c(-c2ccc(O)cc2)n(Cc2ccc(OCCN3CCCCCC3)cc2)c2ccc(O)cc12 [bazedoxifene], which EC50 [3, 9] is on record?
A: 3.47 µM

Q: With O=C(CCCN1CCN(c2ccc(F)cc2)CC1)NC1c2ccccc2CSc2ccccc21 (centres unmarked) [MONATEPIL] as the compound, how does the “HeLa-ACE2 CC50/CoV-2 EC50” value [1] read?
A: >5.01

Q: And the CC50 [2, 6]?
A: > 39 µM

Q: What about the EC50 [3, 7] of the same compound?
A: > 7.79 µM

Q: Which results are given for N#Cc1ccc2c(c1)[C@H]1CN(CCCCNC(=O)c3ccc(-c4ccccc4)cc3)C[C@@H]1CO2 [S-33084]?
A: HeLa-ACE2 CC50/CoV-2 EC50 [1]: >6.34; CC50 [2, 6]: > 24.8 µM; EC50 [3, 7]: 3.91 µM

Q: With Cc1ccc(C(=O)Nc2ccc(CN3CCN(C)CC3)c(C(F)(F)F)c2)cc1C#Cc1cnc2cccnn12 [Ponatinib] as the compound, how does the EC50 [4, 8] read?
A: 1.25 µM

Q: And the EC50 [3, 7]?
A: 1.61 µM

Q: With Nc1ncnc2c1nc(Cl)n2[C@@H]1O[C@H](CO)[C@@H](O)[C@H]1O [8-Chloroadenosine] as the compound, how does the “HeLa-ACE2 CC50/CoV-2 EC50” value [1] read?
A: >12.80

Q: And the CC50 [2, 6]?
A: > 11.9 µM

Q: What about the EC50 [3, 7] of the same compound?
A: 0.927 µM

Q: With COc1cc(C[C@H]2c3cc(OC)c(OC)cc3CCN2C)c(Oc2cc3c(cc2OC)-c2c(OC)c(OC)cc4c2[C@H](C3)N(C)CC4)cc1OC [Thalicarpine] as the compound, how does the EC50 [4, 8] read?
A: > 9.6 µM

Q: And the “HeLa-ACE2 CC50/CoV-2 EC50” value [1]?
A: >45.67

Q: And the CC50 [2, 6]?
A: > 26.6 µM

Q: Which EC50 [3, 9] does the source give for O=C(c1ccc(OCCN2CCCCC2)cc1)c1c(-c2ccc(O)cc2)sc2cc(O)ccc12 [raloxifene] here?
A: 4.13 µM

Q: For CC(C)CC(NC(=O)OCc1ccccc1)C(=O)NC(C(=O)NCC(=O)C=[N+]=[N-])C(C)C (stereo not drawn) [Z LVG CHN2] (Cbz-Leu-Val-Gly-CHN2; configuration not given here), which “HeLa-ACE2 CC50/CoV-2 EC50” value [1] is on record?
A: >554.29

Q: And the CC50 [2, 6]?
A: > 39.8 µM

Q: And the EC50 [3, 7]?
A: 0.072 µM

Q: With Cc1cccc(/C=N/Nc2cc(N3CCOCC3)n3nc(-c4ccncc4)cc3n2)c1 [APY0201] as the compound, how does the “HeLa-ACE2 CC50/CoV-2 EC50” value [1] read?
A: >2853.95

Q: And the CC50 [2, 6]?
A: > 39.4 µM

Q: And the EC50 [3, 7]?
A: 0.014 µM

Q: Which “HeLa-ACE2 CC50/CoV-2 EC50” value [1] does the source give for CN(C)CC1=C[CH]([Fe][CH]2C=CC=C2)C=C1CNc1ccnc2cc(Cl)ccc12 (centres unmarked) [Ferroquine] here?
A: 10.29

Q: And the CC50 [2, 6]?
A: 13.4 µM
